pKi: −log10 of the molar value. “And” between values parts separate entries of the source, which are not always exact repeats. Identical values can stand only once.
Columns and labels:
Chymotrypsinogen A = Chymotrypsinogen A (Bos taurus, UniProt P00766); experiment: Binding affinity against alpha-chymotrypsin
[1] = molecular target: Chymotrypsinogen A (Bos taurus) (UniProt P00766)

COC(=O)[C@@H](Cc1ccccc1)[C@H]1CO1
pKi (Chymotrypsinogen A): 2.00 and 2.49 | Kiact [1]: 5.24 min⁻¹
